pIC50: −log10 of the molar value.
System: SRE.L-firefly luciferase reporter (Rho/MKL1 pathway) in PC-3 prostate cancer cells
Assay: SRE.L-luciferase reporter assay
Assay type: cell-based
Conditions: 19 h, PC-3 cells transfected with Gα12Q231L, SRE.L and pRL-TK reporters; compound 19 hrs
Outline: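 PC-3 cells co-transfected with Gα12Q231L (2 ng), SRE.L-firefly (50 ng) and pRL-TK Renilla (7 ng) reporters, then treated with 0–100 μM compound for 19 h at 37° C. in 0.5% FBS DMEM. Dual-luciferase luminescence expressed as % inhibition vs DMSO; WST-1 viability at 450 nm; n=3 in triplicate.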

| pIC50 | Structure (SMILES) |
| --- | --- |
| 4.82 | Cc1ccc(NC(=O)C2CCCN(C(=O)c3cccc(-c4ccco4)c3)C2)cc1 (centres unmarked) [Example E-111, 1-(3-(furan-2-yl)benzoyl)-N-(p-tolyl)piperidine-3-carboxamide] |
| 4.68 | O=C(NCc1ccc(Cl)cc1)C1CCCN(C(=O)c2cccc(-c3ccco3)c2)C1 (centres unmarked) [Example E-112, N-(4-chlorobenzyl)-1-(3-(furan-2-yl)benzoyl)piperidine-3-carboxamide] |
| 5.10 | CCNc1ccc(CN2CCCC(C(=O)Nc3ccc(Cl)cc3)C2)cc1 (centres unmarked) [Example E-113, N-(4-chlorophenyl)-1-(4-(ethylamino)benzyl)piperidine-3-carboxamide] |
| 5.80 | O=C(Nc1ccc(Cl)cc1)C1CCCN(Cc2ccc(-n3cccn3)cc2)C1 (centres unmarked) [Example E-114, 1-(4-(1H-pyrazol-1-yl)benzyl)-N-(4-chlorophenyl)piperidine-3-carboxamide] |
| 5.28 | O=C(Nc1ccc(Cl)cc1)C1CCCN(C(=O)c2cccc(-n3ccnc3)c2)C1 (centres unmarked) [Example E-115, 1-(3-(1H-imidazol-1-yl)benzoyl)-N-(4-chlorophenyl)piperidine-3-carboxamide] |

Continued, compound first:

| Structure (SMILES) | pIC50 |
| --- | --- |
| N#Cc1ccc(NC(=O)C2CCCN(C(=O)c3cccc(-c4ccco4)c3)C2)cc1 (centres unmarked) [Example E-104, N-(4-cyanophenyl)-1-(3-(furan-2-yl)benzoyl)piperidine-3-carboxamide] | 5.54 |
| O=C(Nc1ccc(F)cc1)C1CCCN(C(=O)c2cccc(-c3ccco3)c2)C1 (centres unmarked) [Example E-105, N-(4-fluorophenyl)-1-(3-(furan-2-yl)benzoyl)piperidine-3-carboxamide] | 4.89 |
| O=C(Nc1ccc(Cl)cc1)C1CN(C(=O)c2cccc(-c3cn[nH]c3)c2)CC(F)(F)C1 (centres unmarked) [Example E-106, 1-(3-(1H-pyrazol-4-yl)benzoyl)-N-(4-chlorophenyl)-5,5-difluoropiperidine-3-carboxamide] | 4.82 |
| O=C(Nc1ccc(Cl)cc1)C1CCN(C(=O)c2cccc(-c3ccco3)c2)C1 (centres unmarked) [Example E-107, N-(4-chlorophenyl)-1-(3-(furan-2-yl)benzoyl)pyrrolidine-3-carboxamide] | 4.85 |
| O=C(Nc1ccc(Cl)cc1)C1CCCN(C(=O)c2ccc(-n3cccc3)cc2)C1 (centres unmarked) [Example E-109, 1-(4-(1H-pyrrol-1-yl)benzoyl)-N-(4-chlorophenyl)piperidine-3-carboxamide] | 5.20 |
| O=C(Nc1ccc(Cl)cc1)C1CCCN(Cc2ccc(-n3cccc3)cc2)C1 (centres unmarked) [Example E-110, 1-(4-(1H-pyrrol-1-yl)benzyl)-N-(4-chlorophenyl)piperidine-3-carboxamide] | 5.54 |
